Data from ChEMBL document CHEMBL2440004, “The influence of saponins on cell membrane cholesterol” (Bioorg Med Chem, 2013).
Active and inactive are the calls of the source. The calls are words filed in the database; no cut-off is given here.

Legend:
[1] = tested on: ECV-304; assay: Cytotoxicity against human ECV304 cells after 72 hrs by MTT assay; format: functional, cell-based; conditions: ECV-304, 72 h
[2] = tested on: ECV-304; assay: Reduction in [3H]cholesterol uptake in human ECV304 cells after 1 hr by liquid scintillation counting; format: functional, cell-based
[3] = tested on: ECV-304; assay: Effect on [3H]cholesterol liberation from cell membrane of human ECV304 cells after 1 hr by liquid scintillation counting; format: functional, cell membranes
[4] = tested on: ECV-304; assay: Membrane toxicity against human ECV304 cells after 2 hrs by LDH release assay; format: functional, cell-based; conditions: ECV-304, 2 h
[5] = tested on: ECV-304; assay: Reduction in [3H]cholesterol content in endosomal/lysosomal membrane of human ECV304 cells at 5 uM after 1 hr by liquid scintillation counting; format: functional, cell membranes
[6] = tested on: ECV-304; assay: Reduction in [3H]cholesterol content in cytoplasm membrane of human ECV304 cells at 5 uM after 1 hr by liquid scintillation counting; format: functional, cell membranes

Structure (SMILES)	IC50 [1]	Activity [2]	Activity [3]	IC50 [4]	Activity [5]	Activity [6]
C[C@H]1O[C@@H](O[C@H]2[C@H](O)[C@@H](O[C@H]3CC[C@]4(C)[C@H]5CC=C6[C@@H]7CC(C)(C)CC[C@]7(C(=O)O[C@@H]7O[C@H](CO[C@@H]8OC[C@](O)(CO)[C@H]8O)[C@@H](O)[C@H](O)[C@H]7O)CC[C@@]6(C)[C@]5(C)CC[C@H]4C3(C)C)O[C@@H](C(=O)O)[C@@H]2O[C@@H]2OC[C@@H](O)[C@H](O)[C@H]2O)[C@@H](O)[C@@H](O)[C@@H]1O	> 100 µM	inactive	inactive			
COC(=O)[C@@]1(C)CC[C@]2(C(=O)O[C@@H]3O[C@H](CO)[C@@H](O)[C@H](O)[C@H]3O)CC[C@]3(C)C(=CC[C@@H]4[C@@]5(C)CC[C@H](O[C@@H]6O[C@H](C(=O)O)[C@@H](O)[C@H](O)[C@H]6O)C(C)(C)[C@@H]5CC[C@]43C)[C@@H]2C1	> 100 µM	inactive	inactive			
C[C@@H]1O[C@@H](O[C@H]2[C@H](O[C@H]3CC[C@@]4(C)[C@@H](CC[C@]5(C)[C@@H]4CC=C4[C@@H]6CC(C)(C)CC[C@]6(C(=O)O[C@@H]6O[C@H](CO[C@@H]7O[C@H](CO)[C@@H](O[C@@H]8O[C@@H](C)[C@H](O)[C@@H](O)[C@H]8O)[C@H](O)[C@H]7O)[C@@H](O)[C@H](O)[C@H]6O)CC[C@]45C)[C@]3(C)CO)OC[C@H](O)[C@@H]2O)[C@H](O)[C@H](O)[C@H]1O [KALOPANAXSAPONIN B]	> 164 µM	inactive	inactive	> 164 µM		
C[C@@H]1O[C@H](O[C@H]2[C@@H](OC(=O)[C@]34CCC(C)(C)C[C@H]3C3=CC[C@@H]5[C@@]6(C)CC[C@H](O[C@@H]7O[C@H](C(=O)O)[C@@H](O)[C@H](O[C@H]8OC[C@@H](O)[C@H](O)[C@H]8O)[C@H]7O[C@@H]7O[C@H](CO)[C@H](O)[C@H](O)[C@H]7O)[C@@](C)(C=O)[C@@H]6CC[C@@]5(C)[C@]3(C)C[C@H]4O)O[C@H](C)[C@H](O)[C@@H]2O)[C@H](O)[C@H](O[C@@H]2O[C@H](CO)[C@@H](O)[C@H](O)[C@H]2O)[C@H]1O[C@H]1OC[C@@H](O)[C@H](O)[C@H]1O	8 µM	Dose-dependent effect	Active			
C[C@@H]1O[C@@H](O[C@H]2[C@H](O[C@H]3CC[C@@]4(C)[C@@H](CC[C@]5(C)[C@@H]4CC=C4[C@@H]6CC(C)(C)CC[C@]6(C(=O)O)CC[C@]45C)[C@]3(C)CO)OC[C@H](O)[C@@H]2O)[C@H](O)[C@H](O)[C@H]1O		Dose-dependent effect	inactive			
CC[C@H](CC[C@@H](C)[C@H]1CC[C@H]2[C@@H]3CC=C4C[C@@H](O)CC[C@]4(C)[C@H]3CC[C@]12C)C(C)C		inactive	inactive			
C[C@H]1O[C@H](O[C@H]2[C@H](O[C@H]3CC[C@]4(C)[C@H]5CC=C6[C@@H]7CC(C)(C)CC[C@]7(CO)[C@H](O)C[C@@]6(C)[C@]5(C)CC[C@H]4C3(C)C)O[C@H](C(=O)O)[C@H](O[C@H]3O[C@@H](CO[C@@H]4O[C@H](CO)[C@@H](O)[C@H](O)[C@H]4O)[C@@H](O)[C@@H](O)[C@@H]3O)[C@@H]2O)[C@@H](O)[C@@H](O)[C@@H]1O	13 µM	Dose-dependent effect	Active	58 µM		
C[C@@H]1O[C@@H](O[C@H]2[C@@H](O)[C@H](O[C@H]3O[C@@H](C)[C@H](O[C@H]4OC[C@@H](O)[C@H](O[C@H]5OC[C@@H](O)[C@H](O)[C@H]5O)[C@H]4O)[C@@H](O)[C@H]3O)[C@H](OC(=O)[C@]34CCC(C)(C)C[C@H]3C3=CC[C@@H]5[C@@]6(C)CC[C@H](O[C@@H]7O[C@H](C(=O)O)[C@@H](O)[C@H](O[C@@H]8OC[C@H](O)[C@@H](O)[C@@H]8O)[C@H]7O[C@@H]7O[C@H](CO)[C@H](O)[C@H](O)[C@H]7O)[C@@](C)(C=O)[C@@H]6CC[C@@]5(C)[C@]3(C)CC4)O[C@H]2C)[C@@H](O)[C@H](O)[C@H]1O	9 µM	Dose-dependent effect	Active	21 µM	inactive	Active
CC1(C)[C@@H](O[C@H]2O[C@H](C(=O)O)[C@@H](O)[C@H](O)[C@H]2O[C@@H]2O[C@H](C(=O)O)[C@@H](O)[C@H](O)[C@H]2O)CC[C@]2(C)[C@H]3C(=O)C=C4[C@@H]5C[C@@](C)(C(=O)O)CC[C@]5(C)CC[C@@]4(C)[C@]3(C)CC[C@@H]12 [GLYCYRRHIZIN]	> 119 µM	inactive	inactive	> 238 µM		
